For 35 compounds, IC50 results are on record in patent publication US9493444B2 (Merck Patent GmbH, priority 2012, dated 2016).

Some results are limits rather than exact numbers.

The test system of the assay is Wnt pathway (TCF-dependent transcription in HEK293 luciferase reporter cell line with ER-DSH construct). The assay is described as follows: Cellular assay for Wnt pathway activity (luciferase reporter). Type of assay: cell-based. The note with it: Homo sapiens; Wnt pathway inhibition, HEK293 luciferase reporter cells (ER-DSH, TCF promoter), 24 hours incubation, estrogen-induced. Here is the method:
1. Cellular Assay for Wnt Pathway Activity
Compounds were tested for their Wnt pathway inhibitory activities using a luciferase reporter cell based assay. A HEK293 luciferase reporter cell line was used which contained an Estrogen Receptor-Dishevelled (ER-DSH) construct and a T-Cell Factor (TCF) dependent gene promoter luciferase construct.
Compounds, in concentrations from 30 μM down to 1 nM, were incubated for 24 hours on the cells, which were induced for TCF-dependent transcription by the addition of estrogen (10). Luciferase activities were determined using the ONE GLO Luciferase Assay System (Promega) and the ENVISION microplate reader (Perkin Elmer). For analysis, the obtained data were normalized against the untreated vehicle control and fitted for determination of the IC50 values using the Assay Explorer software (Accelrys).
For orientation: Reporter assays use an easily measured gene product as a stand-in for the process of interest.
As to `CCN(CCNc1cncc(Oc2ccc(OC)cc2)n1)C(C)=O` [Compound 71, N-Ethyl-N-{2-[6-(4-methoxy-phenoxy)-pyrazin-2-ylamino]-ethyl}-acetamide], the IC50 (in general, the concentration that gives 50% inhibition) fell in the range of 200 to 1000 nM. Then `CC(=O)N(C)CCN(C)c1cncc(Oc2ccc(-c3cccc(C(N)=O)n3)cc2)n1` [Compound 170, 6-[4-(6-{[2-(Acetyl-methyl-amino)-ethyl]-methyl-amino}-pyrazin-2-yloxy)-phenyl]-pyridine-2-carboxylic acid amide], with less than 200 nM; and `CC(=O)N(C)CCN(C)c1cncc(Oc2ccc(C#N)cc2)n1` [Compound 122, N-(2-{[6-(4-Cyano-phenoxy)-pyrazin-2-yl]-methyl-amino}-ethyl)-N-methyl-acetamide], with less than 200 nM. In turn, `COc1ccc(Oc2cncc(N(C)CCN(C)C(=O)CC(C)(C)C)n2)cc1` [Compound 32, N-(2-{[6-(4-Methoxy-phenoxy)-pyrazin-2-yl]-methyl-amino}-ethyl)-3,3-N-trimethyl-butyramide] displayed an IC50 of 1000 to 10000 nM. In the case of `CC(=O)N(C)CCN(C)c1cncc(Oc2ccc(-c3ncc(O)cn3)cc2)n1` [Compound 165, N-[2-({6-[4-(5-Hydroxy-pyrimidin-2-yl)-phenoxy]-pyrazin-2-yl}-methyl-amino)-ethyl]-N-methyl-acetamide], the IC50 was 1000 to 10000 nM. In the case of `CCC(=O)N(C)CCN(C)c1cncc(Oc2ccc(OC)cc2)n1` [Compound 35, N-(2-{[6-(4-Methoxy-phenoxy)-pyrazin-2-yl]-methyl-amino}-ethyl)-N-methyl-propionamide], the IC50 lay within 1000 to 10000 nM. The value for `CC(=O)N(C)CCN(C)c1cncc(Oc2ccc(-c3ccnc(O)c3)cc2)n1` [Compound 204, N-[2-({6-[4-(2-Hydroxy-pyridin-4-yl)-phenoxy]-pyrazin-2-yl}-methyl-amino)-ethyl]-N-methyl-acetamide] was 200 to 1000 nM; that for `CC(=O)N(C)CCN(C)c1cncc(Oc2ccc(-c3ccccc3)cc2)n1` [Compound 98, N-(2-{[6-(Biphenyl-4-yloxy)-pyrazin-2-yl]-methyl-amino}-ethyl)-N-methyl-acetamide] was less than 200 nM. As for `CC(=O)N(C)CCN(C)c1cncc(Oc2ccc(CO)cc2)n1` [Compound 181, N-(2-{[6-(4-Hydroxymethyl-phenoxy)-pyrazin-2-yl]-methyl-amino}-ethyl)-N-methyl-acetamide], the IC50 was less than 200 nM.

Turning to `COc1ccc(Oc2cncc(N(C)CCN(C)C(=O)Cc3cccs3)n2)cc1` [Compound 33, N-(2-{[6-(4-Methoxy-phenoxy)-pyrazin-2-yl]-methyl-amino}-ethyl)-N-methyl-2-thiophen-2-yl-acetamide], the IC50 is 1000 to 10000 nM. The value for `CC(=O)c1ccc(Oc2cncc(N(C)CCN(C)C(C)=O)n2)cc1` [Compound 125, N-(2-{[6-(4-Acetyl-phenoxy)-pyrazin-2-yl]-methyl-amino}-ethyl)-N-methyl-acetamide] was 200 to 1000 nM. Then `COc1ccc(-c2ccc(Oc3cncc(NCCN(C)C(C)=O)n3)cc2)nc1` [Compound 240, N-(2-{6-[4-(5-Methoxy-pyridin-2-yl)-phenoxy]-pyrazin-2-ylamino}-ethyl)-N-methyl-acetamide], with 200 to 1000 nM; and `CC(=O)N(C)CCN(C)c1cncc(Oc2ccc(-c3cnc4ccccc4c3)cc2)n1` [Compound 207, N-Methyl-N-(2-{methyl-[6-(4-quinolin-3-yl-phenoxy)-pyrazin-2-yl]-amino}-ethyl)-acetamide], with 200 to 1000 nM. `COc1ccc(Oc2cncc(N(C)CCN(C)S(=O)(=O)c3ccc(F)cc3F)n2)cc1` [Compound 60, 2,4-Difluoro-N-(2-{[6-(4-methoxy-phenoxy)-pyrazin-2-yl]-methyl-amino}-ethyl)-N-methyl-benzene-sulfonamide] showed an IC50 of 1000 to 10000 nM. The value for `CC(=O)Nc1ccc(-c2ccc(Oc3cncc(N(C)CCN(C)C(C)=O)n3)cc2)cn1` [Compound 182, N-{5-[4-(6-{[2-(Acetyl-methyl-amino)-ethyl]-methyl-amino}-pyrazin-2-yloxy)-phenyl]-pyridin-2-yl}-acetamide] was less than 200 nM. Then `CN(CCN(C)c1cncc(Oc2ccc3ncccc3c2)n1)C(=O)C(F)(F)F` [Compound 74, 2,2,2-Trifluoro-N-methyl-N-(2-{methyl-[6-(quinolin-6-yloxy)-pyrazin-2-yl]-amino}-ethyl)-acetamide], with 1000 to 10000 nM. Then `CC(=O)N(C)CCN(C)c1cncc(Oc2ccc(-c3ccc(C(F)(F)F)cn3)cc2)n1` [Compound 162, N-Methyl-N-[2-(methyl-{6-[4-(5-trifluoro-methyl-pyridin-2-yl)-phenoxy]-pyrazin-2-yl}-amino)-ethyl]-acetamide], with 200 to 1000 nM; and `CC(=O)N(C)CCN(C)c1cncc(Oc2ccc(-c3cc(C(F)(F)F)ccn3)cc2)n1` [Compound 128, N-Methyl-N-[2-(methyl-{6-[4-(4-trifluoro-methyl-pyridin-2-yl)-phenoxy]-pyrazin-2-yl}-amino)-ethyl]-acetamide], with 1000 to 10000 nM.

On to `CC(=O)N(C)CCN(C)c1cncc(Oc2ccc(-c3ccnc4ccccc34)cc2)n1` [Compound 195, N-Methyl-N-(2-{methyl-[6-(4-quinolin-4-yl-phenoxy)-pyrazin-2-yl]-amino}-ethyl)-acetamide], for which the IC50 is less than 200 nM.

`CC(=O)N(C)CCNc1cncc(Cc2ccc(F)cc2)n1` [Compound 322, N-{2-[6-(4-Fluoro-benzyl)-pyrazin-2-ylamino]-ethyl}-N-methyl-acetamide]: the IC50 was in the range of 1000 to 10000 nM. Then `CC(=O)N(C)CCNc1cncc(Oc2ccc(-c3ccc(CO)cn3)cc2)n1` [Compound 293, N-(2-{6-[4-(5-Hydroxy-methyl-pyridin-2-yl)-phenoxy]-pyrazin-2-ylamino}-ethyl)-N-methyl-acetamide], with 200 to 1000 nM. `CC(=O)N(C)CCN(C)c1cncc(Oc2ccc(-c3ccc(CO)nc3)cc2)n1` [Compound 8, N-[2-({6-[4-(6-Hydroxymethyl-pyridin-3-yl)-phenoxy]-pyrazin-2-yl}-methyl-amino)-ethyl]-N-methyl-acetamide]: the 50% inhibitory concentration (IC50) is less than 200 nM. Then `CC(=O)N(C)CCN(C)c1cncc(Oc2ccc(-c3ccc(CN(C)C(=O)CCCCCNC(=O)CCCCC4SCC5NC(=O)NC54)nc3)cc2)n1` (centres unmarked) [Compound 272, 6-[5-(2-Oxo-hexahydro-thieno[3,4-d]imidazol-6-yl)-pentanoyl-amino]-hexanoic acid {5-[4-(6-{[2-(acetyl-methyl-amino)-ethyl]-methyl-amino}-pyrazin-2-yloxy)-phenyl]-pyridin-2-ylmethyl}-methyl-amide], with less than 200 nM. The value for `CC(=O)N(C)CCNc1cncc(Oc2ccc(-c3ccc(N4CCOCC4)nc3)cc2)n1` [Compound 233, N-Methyl-N-(2-{6-[4-(6-morpholin-4-yl-pyridin-3-yl)-phenoxy]-pyrazin-2-ylamino}-ethyl)-acetamide] was 1000 to 10000 nM; that for `CC(=O)N(C)CCN(C)c1cncc(Oc2ccc(-c3cccc(C)n3)cc2)n1` [Compound 160, N-Methyl-N-[2-(methyl-{6-[4-(6-methyl-pyridin-2-yl)-phenoxy]-pyrazin-2-yl}-amino)-ethyl]-acetamide] was less than 200 nM. Compound `CC(=O)N(C)CCCc1cncc(Oc2ccc(F)cc2)n1` [Compound 264, N-{3-[6-(4-Fluoro-phenoxy)-pyrazin-2-yl]-propyl}-N-methyl-acetamide] registered an IC50 of 1000 to 10000 nM.

`CC(=O)N(C)CCCc1cncc(Oc2ccc(-c3ccncc3)cc2F)n1` [Compound 270, N-{3-[6-(2-Fluoro-4-pyridin-4-yl-phenoxy)-pyrazin-2-yl]-propyl}-N-methyl-acetamide] had an IC50 of 200 to 1000 nM.

For `CNCCN(C)c1cncc(Oc2ccc(-c3cccc(N4CCN(C)CC4)n3)cc2)n1` [Compound 134, N,N′-Dimethyl-N-(6-{4-[6-(4-methyl-piperazin-1-yl)-pyridin-2-yl]-phenoxy}-pyrazin-2-yl)-ethane-1,2-diamine], the IC50 lay in the range of 1000 to 10000 nM.

In the case of `CC(=O)N(C)CCN(C)c1cncc(Oc2ccc(C(N)=O)cc2)n1` [Compound 143, 4-(6-{[2-(Acetyl-methyl-amino)-ethyl]-methyl-amino}-pyrazin-2-yloxy)-benzamide], the IC50 lay within 200 to 1000 nM. Then `CC(=O)N(C)CCN(C)c1cncc(Oc2ccc(-c3ccc(C)nc3)cc2)n1` [Compound 183, N-Methyl-N-[2-(methyl-{6-[4-(6-methyl-pyridin-3-yl)-phenoxy]-pyrazin-2-yl}-amino)-ethyl]-acetamide], with less than 200 nM; and `CC(=O)NCC(C)Nc1cncc(Oc2ccc(F)cc2)n1` (centres unmarked) [Compound 289, N-{2-[6-(4-Fluoro-phenoxy)-pyrazin-2-ylamino]-propyl}-acetamide], with 1000 to 10000 nM. Regarding `CC(=O)N(C)CCN(C)c1cncc(Oc2ccc(-c3ncccn3)cc2)n1` [Compound 161, N-Methyl-N-(2-{methyl-[6-(4-pyrimidin-2-yl-phenoxy)-pyrazin-2-yl]-amino}-ethyl)-acetamide], the IC50 was 200 to 1000 nM.

For the compound `CC(=O)Nc1cccc(-c2ccc(Oc3cncc(NCCN(C)C(C)=O)n3)cc2)n1` [Compound 235, N-(2-{6-[4-(6-Acetylamino-pyridin-2-yl)-phenoxy]-pyrazin-2-ylamino}-ethyl)-N-methyl-acetamide], the IC50 lay within 200 to 1000 nM.

Consider `CCN(CCNc1cncc(Oc2cccc(F)c2)n1)C(C)=O` [Compound 70, N-Ethyl-N-{2-[6-(3-fluoro-phenoxy)-pyrazin-2-ylamino]-ethyl}-acetamide], for which the IC50 fell in the range of 1000 to 10000 nM. The value for `CCN(CC1CCCN(c2cncc(Oc3ccc(OC)cc3)n2)C1)C(C)=O` (centres unmarked) [Compound 73, N-Ethyl-N-{1-[6-(4-methoxy-phenoxy)-pyrazin-2-yl]-piperidin-3-ylmethyl}-acetamide] was 1000 to 10000 nM.
